Experimental data: patent publication US20240368177A1, “5-AMINO-6,8-DIHYDRO-1H-FURO[3,4-d]PYRROLO[3,2-b]PYRIDINE-2-CARBOXAMIDE DERIVATIVES AS MTA-COOPERATIVE INHIBITORS OF PRMT5” (BeiGene Switzerland GmbH, priority 2023, published 2024)

Experiments:
[1] = tested on: HCT116-mock-RNA-KO; test: Cell killing in HCT116 isogenic pair (Cell Titer-Glo viability), mock knock-out cells with MTAP wildtype genotype; assay type: cell-based, human; details: Homo sapiens, HCT-116, 144 h, 6 days incubation, 0-10 μM
Excerpt: (§1) HCT116 cell line (ATCC, CCL-247) was isolated from the colon of an adult with colon cancer. It has a mutation in codon 13 of the ras proto-oncogene and can be used as a positive control for PCR assays of mutation in this codon. HCT116-MTAP-KO was knocked-out-MTAP-gene based HCT116, and a single clone was passed for this assay. HCT116-mock-RNA-KO was knocked-out-mock-gene based HCT116 with MTAP wildtype genotype. The base medium for HCT116 isogenic pair is RPMI 1640, HEPES (Gibco, 22400105). To make the complete growth medium, added the following components to the base medium: fetal bovine serum to a final concentration of 10% (Gibco, 10099-141C). The cell line was grown in a humidified 5% CO2 atmosphere at 37° C. and regularly tested for the presence of mycoplasma with MpcoAlert™ PLUS Mycoplasma Detection Kit (Lonzak LT07-710).
(§2) • Seeded HCT116-mock-RNA-KO (4E2/well) or HCT116-MTAP-KO (4E2/well) cells into a 96-well plate (Greiner: 655090), 100 μL/well. • Incubated at 37° C., 5% CO2, overnight. • Added 50 μL fresh growth medium containing serial dilution of test compounds for a final test compound concentration of 0-10 μM to each well. • Incubated at 37° C., 5% CO2, 6 days. • The cell viability was detected by Cell Titer-Glo (Promega, G7573). Added 70 μL of CeliTiter-Glo® reagent in each well. • Incubated at room temperature for 10 minutes to stabilize luminescent signal. • Analyzed with Microplate Reader (TECAN, SPARK) and fit IC50 using Prism® 9.

[2] = tested on: HCT116-MTAP-KO; test: Cell killing in HCT116 isogenic pair (Cell Titer-Glo viability), MTAP knock-out cells; assay type: cell-based, human; details: Homo sapiens, HCT-116, 144 h, 6 days incubation, 0-10 μM, * = more than 50% viability inhibition at tested concentration without a full curve
Excerpt: as §1, §2

CN(C(=O)c1cc2nc(N)c3c(c2[nH]1)COC3)[C@H]1COCc2nc(C3CC3)ccc21 [Example 88, (R)-5-amino-N-(2-cyclopropyl-5,8-dihydro-6H-pyrano[3,4-b]pyridin-5-yl)-N-methyl-6,8-dihydro-1H-furo[3,4-d]pyrrolo[3,2-b]pyridine-2-carboxamide]
IC50 [1]: > 10000 nM | IC50 [2]: 1410 nM

CCN(C(=O)c1cc2nc(N)c3c(c2[nH]1)COC3)[C@@H]1COc2cc(C(F)(F)F)ccc21 [Example 77, (S)-5-amino-N-ethyl-N-(6-(trifluoromethyl)-2,3-dihydrobenzofuran-3-yl)-6,8-dihydro-1H-furo[3,4-d]pyrrolo[3,2-b]pyridine-2-carboxamide]
IC50 [1]: > 10000 nM | IC50 [2]: 51 nM

Nc1nc2cc(C(=O)N(Cc3c(F)cccc3F)[C@@H]3CCCc4cccnc43)[nH]c2c2c1COC2 [Example 5, (R)-5-amino-N-(2,6-difluorobenzyl)-N-(5,6,7,8-tetrahydroquinolin-8-yl)-6,8-dihydro-1H-furo[3,4-d]pyrrolo[3,2-b]pyridine-2-carboxamide]
IC50 [1]: 76 nM | IC50 [2]: 4 nM

Cc1cc([C@@H](C)N(C)C(=O)c2cc3nc(N)c4c(c3[nH]2)COC4)c(F)cc1C1CC1 [Example 151, (R)-5-amino-N-(1-(4-cyclopropyl-2-fluoro-5-methylphenyl)ethyl)-N-methyl-6,8-dihydro-1H-furo[3,4-d]pyrrolo[3,2-b]pyridine-2-carboxamide]
IC50 [1]: > 10000 nM | IC50 [2]: 85 nM

CO[C@@H]1CCOC[C@H]1N(Cc1ccc(-c2ccccc2)cn1)C(=O)c1cc2nc(N)c3c(c2[nH]1)COC3 [Example 27, 5-amino-N-((3R,4R)-4-methoxytetrahydro-2H-pyran-3-yl)-N-((5-phenylpyridin-2-yl)methyl)-6,8-dihydro-1H-furo[3,4-d]pyrrolo[3,2-b]pyridine-2-carboxamide]
IC50 [1]: 284 nM | IC50 [2]: 2.4 nM

CO[C@@H]1CCOC[C@H]1N(Cc1ncc(C(F)(F)F)cc1F)C(=O)c1cc2nc(N)c3c(c2[nH]1)COC3 [Example 34, 5-amino-N-((3-fluoro-5-(trifluoromethyl)pyridin-2-yl)methyl)-N-((3R,4R)-4-methoxytetrahydro-2H-pyran-3-yl)-6,8-dihydro-1H-furo[3,4-d]pyrrolo[3,2-b]pyridine-2-carboxamide]
IC50 [1]: 1350 nM | IC50 [2]: 7.4 nM

CCN(C(=O)c1cc2nc(N)c3c(c2[nH]1)CO[C@@H]3C)[C@@H](C)c1ccc(C2CC2)cc1F [Example 176, (R)-5-amino-N—((S)-1-(4-cyclopropyl-2-fluorophenyl)ethyl)-N-ethyl-6-methyl-6,8-dihydro-1H-furo[3,4-d]pyrrolo[3,2-b]pyridine-2-carboxamide]
IC50 [1]: 1780 nM | IC50 [2]: 452 nM

CCN(C(=O)c1cc2nc(N)c3c(c2[nH]1)COC3)[C@@H](C)c1ccc(Br)cc1F [Example 134, (S)-5-amino-N-(1-(4-bromo-2-fluorophenyl)ethyl)-N-ethyl-6,8-dihydro-1H-furo[3,4-d]pyrrolo[3,2-b]pyridine-2-carboxamide]
IC50 [1]: 2880 nM | IC50 [2]: 336 nM

C[C@H](c1c(F)cc(C(F)(F)F)cc1F)N(C)C(=O)c1cc2nc(N)c3c(c2[nH]1)COC3 [Example 150, (R)-5-amino-N-(1-(2,6-difluoro-4-(trifluoromethyl)phenyl)ethyl)-N-methyl-6,8-dihydro-1H-furo[3,4-d]pyrrolo[3,2-b]pyridine-2-carboxamide]
IC50 [1]: 2790 nM | IC50 [2]: 32 nM

C[C@@H](c1ccc(C(F)(F)F)cc1F)N(C)C(=O)c1cc2nc(N)c3c(c2[nH]1)COC3 [Example 146, (S)-5-amino-N-(1-(2-fluoro-4-(trifluoromethyl)phenyl)ethyl)-N-methyl-6,8-dihydro-1H-furo[3,4-d]pyrrolo[3,2-b]pyridine-2-carboxamide]
IC50 [1]: > 10000 nM | IC50 [2]: 316 nM

CO[C@@H]1CCOC[C@H]1N(Cc1ccc(-c2c(F)cccc2F)cn1)C(=O)c1cc2nc(N)c3c(c2[nH]1)CO[C@H]3C [Example 24, (S)-5-amino-N-((5-(2,6-difluorophenyl)pyridin-2-yl)methyl)-N-((3R,4R)-4-methoxytetrahydro-2H-pyran-3-yl)-6-methyl-6,8-dihydro-1H-furo[3,4-d]pyrrolo[3,2-b]pyridine-2-carboxamide]
IC50 [1]: 8540 nM | IC50 [2]: 103 nM

C[C@H]1OCc2c1c(N)nc1cc(C(=O)N(C)[C@@H](C)c3ccc(C(F)(F)F)cc3F)[nH]c21 [Example 147, (R)-5-amino-N—((S)-1-(2-fluoro-4-(trifluoromethyl)phenyl)ethyl)-N,6-dimethyl-6,8-dihydro-1H-furo[3,4-d]pyrrolo[3,2-b]pyridine-2-carboxamide]
IC50 [1]: 5420 nM | IC50 [2]: 1230 nM

CCN(C(=O)c1cc2nc(N)c3c(c2[nH]1)COC3)[C@@H](C)c1ncc(C(F)(F)F)cc1F [Example 111, (S)-5-amino-N-ethyl-N-(1-(3-fluoro-5-(trifluoromethyl)pyridin-2-yl)ethyl)-6,8-dihydro-1H-furo[3,4-d]pyrrolo[3,2-b]pyridine-2-carboxamide]
IC50 [1]: > 10000 nM | IC50 [2]: 2200 nM

CN1CC[C@@H](N(C)C(=O)c2cc3nc(N)c4c(c3[nH]2)COC4)c2ccc(C(F)(F)F)cc21 [Example 181, (R)-5-amino-N-methyl-N-(1-methyl-7-(trifluoromethyl)-1,2,3,4-tetrahydroquinolin-4-yl)-6,8-dihydro-1H-furo[3,4-d]pyrrolo[3,2-b]pyridine-2-carboxamide]
IC50 [1]: 1800 nM | IC50 [2]: 15 nM

CC[C@@H](C)N(Cc1ccc(C2CC2)c(C)n1)C(=O)c1cc2nc(N)c3c(c2[nH]1)COC3 [Example 108, (R)-5-amino-N-(sec-butyl)-N-((5-cyclopropyl-6-methylpyridin-2-yl)methyl)-6,8-dihydro-1H-furo[3,4-d]pyrrolo[3,2-b]pyridine-2-carboxamide]
IC50 [1]: 3420 nM | IC50 [2]: 31 nM

CC(C)C(=O)N1Cc2cc(C(F)(F)F)ccc2[C@@H](N(C)C(=O)c2cc3nc(N)c4c(c3[nH]2)COC4)C1 [Example 103, (R)-5-amino-N-(2-isobutyryl-7-(trifluoromethyl)-1,2,3,4-tetrahydroisoquinolin-4-yl)-N-methyl-6,8-dihydro-1H-furo[3,4-d]pyrrolo[3,2-b]pyridine-2-carboxamide]
IC50 [1]: 2450 nM | IC50 [2]: 272 nM

C[C@H]1OC[C@H](N(C)C(=O)c2cc3nc(N)c4c(c3[nH]2)COC4)c2ccc(C(F)(F)F)cc21 [Example 57, 5-amino-N-methyl-N-((1R,4R)-1-methyl-7-(trifluoromethyl)isochroman-4-yl)-6,8-dihydro-1H-furo[3,4-d]pyrrolo[3,2-b]pyridine-2-carboxamide]
IC50 [1]: > 10000 nM | IC50 [2]: 958 nM

CCN(C(=O)c1cc2nc(N)c3c(c2[nH]1)COC3)[C@H](C)c1ncc(C(F)(F)F)cc1F [Example 110, (R)-5-amino-N-ethyl-N-(1-(3-fluoro-5-(trifluoromethyl)pyridin-2-yl)ethyl)-6,8-dihydro-1H-furo[3,4-d]pyrrolo[3,2-b]pyridine-2-carboxamide]
IC50 [1]: 2490 nM | IC50 [2]: 12 nM

CCN(C(=O)c1cc2nc(N)c3c(c2[nH]1)CO[C@@H]3C)[C@@H](C)c1ncc(Br)cc1F [Example 129, (R)-5-amino-N—((S)-1-(5-bromo-3-fluoropyridin-2-yl)ethyl)-N-ethyl-6-methyl-6,8-dihydro-1H-furo[3,4-d]pyrrolo[3,2-b]pyridine-2-carboxamide]
IC50 [1]: > 10000 nM | IC50 [2]: 1180 nM

C[C@@H]1OC[C@@H](N(C)C(=O)c2cc3nc(N)c4c(c3[nH]2)COC4)c2ccc(C(F)(F)F)cc21 [Example 59, 5-amino-N-methyl-N-((1S,4S)-1-methyl-7-(trifluoromethyl)isochroman-4-yl)-6,8-dihydro-1H-furo[3,4-d]pyrrolo[3,2-b]pyridine-2-carboxamide]
IC50 [1]: > 10000 nM | IC50 [2]: 110 nM

CC(C)C(=O)N1Cc2cc(C(F)(F)F)ccc2[C@H](N(C)C(=O)c2cc3nc(N)c4c(c3[nH]2)COC4)C1 [Example 102, (S)-5-amino-N-(2-isobutyryl-7-(trifluoromethyl)-1,2,3,4-tetrahydroisoquinolin-4-yl)-N-methyl-6,8-dihydro-1H-furo[3,4-d]pyrrolo[3,2-b]pyridine-2-carboxamide]
IC50 [1]: 77 nM | IC50 [2]: 1.1 nM

COCCN(C(=O)c1cc2nc(N)c3c(c2[nH]1)COC3)[C@@H](C)c1ncc(C(F)(F)F)cc1F [Example 158, (S)-5-amino-N-(1-(3-fluoro-5-(trifluoromethyl)pyridin-2-yl)ethyl)-N-(2-methoxyethyl)-6,8-dihydro-1H-furo[3,4-d]pyrrolo[3,2-b]pyridine-2-carboxamide]
IC50 [1]: > 10000 nM | IC50 [2]: 2020 nM

C[C@H](c1ncc(C2CC2)cc1F)N(C(=O)c1cc2nc(N)c3c(c2[nH]1)COC3)C1CCC1 [Example 153, (R)-5-amino-N-cyclobutyl-N-(1-(5-cyclopropyl-3-fluoropyridin-2-yl)ethyl)-6,8-dihydro-1H-furo[3,4-d]pyrrolo[3,2-b]pyridine-2-carboxamide]
IC50 [1]: 610 nM | IC50 [2]: 10 nM
